Source: US20250127863A1, “ANTIMICROBIAL PEPTIDE FOR ONYCHOMYCOSIS” (CBMR SCIENTIFIC NANOSCIENCE B.V., priority 2019, published 2025)
No end group written: not given here.

What was measured:
Assay in all cases: MIC90 growth inhibition
Type in all cases: cell-based
Exophiala dermatitidis = settings: RPMI 1640 one-fourth strength
Experimental: (§1) The minimum inhibitory concentration (MIC) value is defined as the lowest sample concentration that inhibited growth. In the Examples, the MIC90 value is presented, which MIC90 values are determined according to established methods known to the person with the skills in the relevant art. Experiments; 1×10E5 CFU of various strains/ml were incubated for 24-48 h at 37° C. in 4× diluted medium of RPMI 1640 with the indicated concentrations of antimicrobial peptide hLF(1-11) [SEQ ID NO: 3]. As controls various strains cells were incubated for 24-48 h at 37° C. with no agent (antimicrobial peptide), and subsequently, growth of the microbial organism (e.g. yeast, bacterium) was monitored by using spectrophotometry with a spectrophotometer at 620 nm. […] ND=Not done. Representative single assay data are listed rather than a range, for clarity reasons and for ease of comparison of peptide efficacy. The MIC was calculated as the lowest antibiotic (antimicrobial peptide) concentration at which growth of the assessed yeast or bacterium (microbe) was inhibited (inhibitory concentration IC90).

[1] = tested on: Trichophyton mentagrophytes; settings: RPMI 1640 one-fourth strength
Experimental: as §1

Absidia corymbifera = settings: RPMI 1640 one-fourth strength
Experimental: as §1

Epidermophyton floccosum = settings: RPMI 1640 one-fourth strength
Experimental: as §1

Enterococcus faecalis = settings: RPMI 1640 one-fourth strength
Experimental: as §1

Penicillium expansum = settings: RPMI 1640 one-fourth strength
Experimental: as §1

[2] = tested on: Malassezia pachydermatis CBS 1883; settings: RPMI 1640 one-fourth strength
Experimental: as §1

Torula spp = settings: RPMI 1640 one-fourth strength
Experimental: as §1

Fusarium solani = settings: RPMI 1640 one-fourth strength
Experimental: as §1

Penicillium italicum = settings: RPMI 1640 one-fourth strength
Experimental: as §1

[3] = tested on: Malassezia furfur CBS 1878; settings: RPMI 1640 one-fourth strength
Experimental: as §1

[4] = tested on: M. guilliermondii CBS-2030 (Perugia); settings: RPMI 1640 one-fourth strength
Experimental: as §1

Mycobacterium avium = settings: RPMI 1640 one-fourth strength
Experimental: as §1

Cryptococcus albidus = settings: RPMI 1640 one-fourth strength
Experimental: as §1

Mucor spp = settings: RPMI 1640 one-fourth strength
Experimental: as §1

[5] = tested on: Staphylococcus aureus 10649; settings: RPMI 1640 one-fourth strength
Experimental: as §1

Escherichia coli = settings: RPMI 1640 one-fourth strength
Experimental: as §1

Cryptococcus gattii = settings: RPMI 1640 one-fourth strength
Experimental: as §1

Malassezia globosa = settings: RPMI 1640 one-fourth strength
Experimental: as §1

[6] = tested on: Streptocococcus mitis 033; settings: RPMI 1640 one-fourth strength
Experimental: as §1

[7] = tested on: Malassezia furfur CBS 9595; settings: RPMI 1640 one-fourth strength
Experimental: as §1

[8] = tested on: Malassezia furfur CBS-4172; settings: RPMI 1640 one-fourth strength
Experimental: as §1

[9] = tested on: Malassezia furfur CBS-7982; settings: RPMI 1640 one-fourth strength
Experimental: as §1

Microsporum gypseum = settings: RPMI 1640 one-fourth strength
Experimental: as §1

[10] = tested on: Saccharomyces cerivisiae CMC-520; settings: RPMI 1640 one-fourth strength
Experimental: as §1

Phialophora verrucosa = settings: RPMI 1640 one-fourth strength
Experimental: as §1

[11] = tested on: Malassezia pachydermatis CBS-1879; settings: RPMI 1640 one-fourth strength
Experimental: as §1

[12] = tested on: Paracoccidioides brasiliensis; settings: RPMI 1640 one-fourth strength
Experimental: as §1

Streptococcus lactis = settings: RPMI 1640 one-fourth strength
Experimental: as §1

Rhizopus spp = settings: RPMI 1640 one-fourth strength
Experimental: as §1

Sporothrix schenckii = settings: RPMI 1640 one-fourth strength
Experimental: as §1

Penicillium digitatum = settings: RPMI 1640 one-fourth strength
Experimental: as §1

Altematria spp. = settings: RPMI 1640 one-fourth strength
Experimental: as §1

Nannizia gypsea = settings: RPMI 1640 one-fourth strength
Experimental: as §1

[13] = tested on: Saccharomyces cerivisiae ATCC 2601; settings: RPMI 1640 one-fourth strength
Experimental: as §1

[14] = tested on: Malassezia furfur CBS-9372; settings: RPMI 1640 one-fourth strength
Experimental: as §1

[15] = tested on: Malassezia pachydermatis CBS 1880; settings: RPMI 1640 one-fourth strength
Experimental: as §1

[16] = tested on: Malassezia furfur CBS 14141; settings: RPMI 1640 one-fourth strength
Experimental: as §1

Microsporum canis = settings: RPMI 1640 one-fourth strength
Experimental: as §1

[17] = tested on: Cryptococcus neoformans ▴ SKN7 (UMC); settings: genetically modified type species, RPMI 1640 one-fourth strength
Experimental: as §1

Streptococcus caseii = settings: RPMI 1640 one-fourth strength
Experimental: as §1

[18] = tested on: Trichophyton interdigitale; settings: RPMI 1640 one-fourth strength
Experimental: as §1

Pichia membramfaciens = settings: RPMI 1640 one-fourth strength
Experimental: as §1

Aspergillus sydowii = settings: RPMI 1640 one-fourth strength
Experimental: as §1

For “GRRRRSVQWCA [hLF1-11, Gly Arg Arg Arg Arg Ser Val Gln Trp Cys Ala]”, the “Inhibitory concentration MIC (MIC90)” value (Exophiala dermatitidis) was “MIC = 2 μg/ml”, the “Inhibitory concentration MIC (MIC90)” value [1] was “MIC = 6.3-45 μg/ml” and the “Inhibitory concentration MIC (MIC90)” value (Absidia corymbifera) was “MIC = 40 μg/ml”. For the same sequence, the “Inhibitory concentration MIC (MIC90)” value (Epidermophyton floccosum) was “MIC = 0.31-2.5 μg/ml”, the “Inhibitory concentration MIC (MIC90)” value (Enterococcus faecalis) was “MIC = 6.3 μg/ml” and the “Inhibitory concentration MIC (MIC90)” value (Penicillium expansum) was “MIC = 16 μM”. The “Inhibitory concentration MIC (MIC90)” value [2] was “MIC = 25-50 μg/mL”, the “Inhibitory concentration MIC (MIC90)” value (Torula spp) was “MIC = 40 μg/ml” and the “Inhibitory concentration MIC (MIC90)” value (Fusarium solani) was “MIC = 8-16 μM”. For the same sequence, the “Inhibitory concentration MIC (MIC90)” value (Penicillium italicum) was “MIC = 8 μM”, the “Inhibitory concentration MIC (MIC90)” value [3] was “MIC = 12.5-50 μg/mL” and the “Inhibitory concentration MIC (MIC90)” value [4] was “MIC = 50 μg/mL”. The “Inhibitory concentration MIC (MIC90)” value (Mycobacterium avium) was “MIC = 50 μg/ml”, the “Inhibitory concentration MIC (MIC90)” value (Cryptococcus albidus) was “MIC = 25 μg/ml” and the “Inhibitory concentration MIC (MIC90)” value (Mucor spp) was “MIC = 25-50 μg/mL”. For the same sequence, the “Inhibitory concentration MIC (MIC90)” value [5] was “MIC = 1.6 μg/ml”, the “Inhibitory concentration MIC (MIC90)” value (Escherichia coli) was “MIC = 6.3 μg/ml” and the “Inhibitory concentration MIC (MIC90)” value (Cryptococcus gattii) was “MIC = 64 μg/mL”. For the same sequence, the “Inhibitory concentration MIC (MIC90)” value (Malassezia globosa) was “MIC = 12.5-50 μg/mL”, the “Inhibitory concentration MIC (MIC90)” value [6] was “MIC = 6.3 μg/ml” and the “Inhibitory concentration MIC (MIC90)” value [7] was “MIC = 25-50 μg/mL”. The “Inhibitory concentration MIC (MIC90)” value [8] was “MIC = 50 μg/ml”, the “Inhibitory concentration MIC (MIC90)” value [9] was “MIC = 100 μg/ml” and the “Inhibitory concentration MIC (MIC90)” value (Microsporum gypseum) was “MIC = 20-40 μg/ml”. The “Inhibitory concentration MIC (MIC90)” value [10] was “MIC = 50 μg/ml”, the “Inhibitory concentration MIC (MIC90)” value (Phialophora verrucosa) was “MIC = 5-10 μg/ml” and the “Inhibitory concentration MIC (MIC90)” value [11] was “MIC = 50 μg/ml”. The “Inhibitory concentration MIC (MIC90)” value [12] was “MIC = 0.63-1.25 μg/ml”, the “Inhibitory concentration MIC (MIC90)” value (Streptococcus lactis) was “MIC = 3.1 μg/ml” and the “Inhibitory concentration MIC (MIC90)” value (Rhizopus spp) was “MIC = 25 μg/mL”. The “Inhibitory concentration MIC (MIC90)” value (Sporothrix schenckii) was “MIC = 2-10 μg/ml”, the “Inhibitory concentration MIC (MIC90)” value (Penicillium digitatum) was “MIC = 8 μM” and the “Inhibitory concentration MIC (MIC90)” value (Altematria spp.) was “MIC = 16 μM”. For the same sequence, the “Inhibitory concentration MIC (MIC90)” value (Nannizia gypsea) was “MIC = 30 μg/ml”, the “Inhibitory concentration MIC (MIC90)” value [13] was “MIC = 25 μg/mL” and the “Inhibitory concentration MIC (MIC90)” value [14] was “MIC = 50 μg/ml”. The “Inhibitory concentration MIC (MIC90)” value [15] was “MIC = 25-50 μg/mL”, the “Inhibitory concentration MIC (MIC90)” value [16] was “MIC = 12.5-50 μg/mL” and the “Inhibitory concentration MIC (MIC90)” value (Microsporum canis) was “MIC = 40 μg/ml”. For the same sequence, the “Inhibitory concentration MIC (MIC90)” value [17] was “MIC = 6.3 μg/ml”, the “Inhibitory concentration MIC (MIC90)” value (Streptococcus caseii) was “MIC = 3.1 μg/ml” and the “Inhibitory concentration MIC (MIC90)” value [18] was “MIC = 6.3-45 μg/ml”. For the same sequence, the “Inhibitory concentration MIC (MIC90)” value (Pichia membramfaciens) was “MIC = 45 μg/ml” and the “Inhibitory concentration MIC (MIC90)” value (Aspergillus sydowii) was “MIC = 2.5-12.5 μg/ml”.
